# Source: ChEMBL document CHEMBL1147194, “Synthesis and evaluation of galactofuranosyl N,N-dialkyl sulfenamides and sulfonamides as antimycobacterial agents” (2007)
# System: Mycolicibacterium smegmatis
# Test: Antimycobacterial activity against Mycobacterium smegmatis ATCC 14468 after 72 hrs by broth microdilution assay
# Type: functional
# Conditions: ATCC 14468, 72 h
row,SMILES,MIC [µg/mL]
1,CCCCCCCCCCN(CCCCCCCCCC)S[C@@H]1O[C@@H]([C@H](O)CO)[C@H](O)[C@H]1O,1
2,CCCCCCCCN(CCCCCCCC)S[C@@H]1O[C@@H]([C@H](O)CO)[C@H](O)[C@H]1O,4
3,OC[C@@H](O)[C@@H]1O[C@@H](SN(Cc2ccccc2)Cc2ccccc2)[C@H](O)[C@H]1O,16
4,CCCCCCCCCCN(CCCCCCCCCC)S(=O)(=O)[C@@H]1O[C@@H]([C@H](O)CO)[C@H](O)[C@H]1O,> 32
5,CCCCCCN(CCCCCC)S(=O)(=O)[C@@H]1O[C@@H]([C@H](O)CO)[C@H](O)[C@H]1O,64
6,CCCCCCN(CCCCCC)S[C@@H]1O[C@@H]([C@H](O)CO)[C@H](O)[C@H]1O,> 64
7,O=S(=O)([C@@H]1O[C@@H]([C@H](O)CO)[C@H](O)[C@H]1O)N(Cc1ccccc1)Cc1ccccc1,> 64
8,CCCCCCCCN(CCCCCCCC)S(=O)(=O)[C@@H]1O[C@@H]([C@H](O)CO)[C@H](O)[C@H]1O,2
